{"source": "paper PMC7730851", "about": "“Expression of Somatostatin Receptor Subtypes (SSTR-1–SSTR-5) in Pediatric Hematological and Oncological Disorders” (Molecules, 2020)", "key": {"[1]": {"system": "somatostatin receptors (SSTR)", "assay": "Displacement of [125I]RC-160 binding from membranes of human pediatric tumors by unlabeled peptides", "details": "for inhibition/displacement of the binding of radioiodinated RC-160: pediatric tumor membranes, competitor 10^-12-10^-6 M, concentrations as high as 1 µM; for displacement of [125I]RC-160 binding: membrane fractions of human rhabdomyosarcoma specimen, Figure 3", "procedure": "(§1) Receptor binding affinities and concentrations of SSTRs in tumor membranes were also studied. […] Biochemical specifications and parameters crucial to characterize specific binding sites were also defined. […] Various peptides structurally related or unrelated to SST were used in these studies.\nDisplacement of [^125I] RC-160 as a radioligand by the unlabeled SST analogs as competitor was determined.\n(§2) The radioiodinated derivatives of the RC-160 SST analogue were prepared by the chloramine-T method and purified by reverse phase high-performance liquid chromatography (RP-HPLC) as described previously. Somatostatin receptor-binding assays were performed as described previously with some minor modifications, using in vitro ligand competition assays based on the binding of [^125I] RC-160 as a radioligand to membrane fractions of the pediatric samples. This radioiodinated ligand has been well characterized and reported previously and has high affinity for SSTR-2 and SSTR-5 [4]. Tumor membrane homogenates were incubated as competitors with 50,000–70,000 cpm radioiodinated RC-160 and 10^−12–10^−6 M nonradioactive peptides. After incubation for 2 h, the binding reactions were stopped, and the bound ligand was separated and counted in a gamma counter. The LIGAND-PC computer curve-fitting software of Munson and Rodbard was used to determine the type of receptor binding, the dissociation constant (Kd), and the maximal binding capacity of SSTRs (Bmax). […] The final binding affinities were expressed as IC50 values. Protein concentration was determined by the method of Bradford using a Bio-Rad protein assay kit (Bio-Rad Laboratories, Inc.)."}, "SSTR-2": {"system": "SSTR-2", "details": "cited from earlier work"}, "SSTR-5": {"system": "SSTR-5", "details": "cited from earlier work"}, "[2]": {"target": "somatostatin receptors (SSTR)", "assay": "Ligand competition assay: binding of [125I]RC-160 to membrane homogenates of pediatric solid tumor samples (Scatchard / LIGAND-PC)", "design": "species or system human", "procedure": "as §1, §2"}, "SSTR-1": {"system": "SSTR-1", "details": "cited from earlier work"}, "SSTR-3": {"system": "SSTR-3", "details": "cited from earlier work"}}, "note": "“Also recorded” adds a separate entry of the source. Read-outs that look alike come from different tables or passages of the source. Positions of bridges follow the written chain, without caps; N, C: chain ends. Non-standard residues stand in square brackets, D forms with d. Residues, ends and D or L forms follow the SMILES beside them.", "data": [{"molecule": "insulin-like growth factor I: unrelated peptide used as specificity control", "values": [{"measurement": "inhibition/displacement of the binding of radioiodinated RC-160", "setting": "[1]", "result": "none"}]}, {"molecule": "CC(C)[C@@H]1NC(=O)[C@H](CCCCN)NC(=O)[C@@H](Cc2c[nH]c3ccccc23)NC(=O)[C@H](Cc2ccc(O)cc2)NC(=O)[C@@H](NC(=O)[C@H](N)Cc2ccccc2)CSSC[C@@H](C(=O)N[C@@H](Cc2c[nH]c3ccccc23)C(N)=O)NC1=O", "note": "[[125I]RC-160] (H-[dF]CY[dW]KVCW-NH2; disulfide 2-7)", "values": [{"measurement": "affinity for SSTR-2", "setting": "SSTR-2", "result": "high affinity"}, {"measurement": "affinity for SSTR-5", "setting": "SSTR-5", "result": "high affinity"}, {"measurement": "Kd", "setting": "[2]; mean of seven receptor-positive pediatric tumor samples, read-out: mean dissociation constant (Kd)", "result": 6, "unit": "nM"}, {"measurement": "Kd", "setting": "[2]; patient 1, teratoma membranes, duplicates, read-out: SSTR Kd", "result": 5.76, "unit": "nM"}, {"measurement": "Kd", "setting": "[2]; patient 4, Hodgkin lymphoma membranes, duplicates, read-out: SSTR Kd", "result": 8.01, "unit": "nM"}, {"measurement": "Kd", "setting": "[2]; patient 5, rhabdomyosarcoma membranes, duplicates, read-out: SSTR Kd", "result": 8.12, "unit": "nM"}, {"measurement": "Kd", "setting": "[2]; patient 6, rhabdomyosarcoma membranes, duplicates, read-out: SSTR Kd", "result": 4.31, "unit": "nM"}, {"measurement": "Kd", "setting": "[2]; patient 7, hamartoma membranes, duplicates, read-out: SSTR Kd", "result": 4.02, "unit": "nM"}, {"measurement": "Kd", "setting": "[2]; range over seven receptor-positive pediatric tumor samples, read-out: dissociation constant (Kd), range", "result": "4.02 to 8.12", "unit": "nM"}]}, {"molecule": "[Tyr4]bombesin", "values": [{"measurement": "inhibition/displacement of the binding of radioiodinated RC-160", "setting": "[1]", "result": "none"}]}, {"molecule": "luteinizing hormone-releasing hormone (LHRH): unrelated peptide used as specificity control", "values": [{"measurement": "displacement of [125I]RC-160 binding", "setting": "[1]", "result": "did not displace"}, {"measurement": "inhibition/displacement of the binding of radioiodinated RC-160", "setting": "[1]", "result": "none"}]}, {"molecule": "VIP: unrelated peptide used as specificity control (Figure 3)", "values": [{"measurement": "displacement of [125I]RC-160 binding", "setting": "[1]", "result": "did not displace"}]}, {"molecule": "bombesin", "values": [{"measurement": "displacement of [125I]RC-160 binding", "setting": "[1]", "result": "did not displace"}]}, {"molecule": "octreotide", "values": [{"measurement": "affinity to SSTR-1", "setting": "SSTR-1", "result": "lower binding affinity"}, {"measurement": "affinity to SSTR-2", "setting": "SSTR-2", "result": "high affinity; also recorded: highest affinity"}, {"measurement": "affinity to SSTR-5", "setting": "SSTR-5", "result": "high affinity; also recorded: approximately similar affinity"}, {"measurement": "affinity to SSTR-3", "setting": "SSTR-3", "result": "approximately similar affinity"}]}, {"molecule": "pasireotide", "values": [{"measurement": "affinity to SSTR-1", "setting": "SSTR-1", "result": "possesses an affinity"}, {"measurement": "affinity to SSTR-5", "setting": "SSTR-5", "result": "possesses an affinity"}, {"measurement": "affinity to SSTR-3", "setting": "SSTR-3", "result": "possesses an affinity"}]}, {"molecule": "SST-14: somatostatin-14, native peptide", "values": [{"measurement": "inhibition/displacement of the binding of radioiodinated RC-160", "setting": "[1]", "result": "displaced completely"}]}, {"molecule": "growth hormone-releasing hormone (GHRH): unrelated peptide used as specificity control", "values": [{"measurement": "displacement of [125I]RC-160 binding", "setting": "[1]", "result": "did not displace"}, {"measurement": "inhibition/displacement of the binding of radioiodinated RC-160", "setting": "[1]", "result": "none"}]}]}
